The values that follow come from ChEMBL document CHEMBL1201862, “PubChem BioAssay data set” (2004).

Among the test systems are 786-0; A498; A549; CAKI-1; CCRF-CEM; HCT-116; HOP-62; IGROV-1; K562; LOX IMVI; M14; MDA-N; NCI-H522; NCI/ADR-RES; SF-539; SN12C; TK-10; UACC-62; UO-31; RXF 393.
What all share (assay): growth of human tumour cells (NCI), 48 h

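Protocol summary: plate cells (96-well), add compound at 5 concentrations, incubate 48 h, interpolate endpoints linearly. The concentration for 50% growth inhibition is given as GI50.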 The source made the active and inactive calls. Rule as the data show it: active = GI50 up to about 1.1 µM and inactive = higher. Where only a bound is given, the exact number is not on record here.

`C=CCSC(C)=O`: the GI50 in the assay on 786-0, in the assay on A498, in the assay on A549, in the assay on CAKI-1, with CCRF-CEM and with HCT-116 was > 100 µM (inactive) throughout. Moreover, the GI50 with HOP-62, with IGROV-1, in the assay on K562, with LOX IMVI, with M14 and with MDA-N was > 100 µM (inactive) in each case. The GI50 with NCI-H522 is 98.9 µM (inactive); in the assay on NCI/ADR-RES, > 100 µM (inactive); in the assay with SF-539, > 100 µM (inactive); in the assay with SN12C, > 100 µM (inactive); in the assay with TK-10, > 100 µM (inactive); in the assay with UACC-62 it was > 100 µM (inactive). The GI50 in the assay with UO-31 is > 100 µM (inactive).
With `O=C(O)C#Cc1ccc([N+](=O)[O-])cc1`, the GI50 in the assay on 786-0, with A498, with A549, in the assay on CAKI-1, with CCRF-CEM and in the assay on HCT-116 was > 100 µM (inactive) throughout. In addition, the GI50 in the assay with HOP-62, in the assay on IGROV-1, with K562, in the assay on LOX IMVI, in the assay on M14 and with MDA-N was > 100 µM (inactive) each time. For the same compound, the GI50 in the assay with NCI/ADR-RES, with RXF 393, in the assay with SF-539, in the assay with SN12C, in the assay on TK-10 and in the assay with UACC-62 was > 100 µM (inactive) each time. Moreover, the GI50 in the assay with UO-31 was > 100 µM (inactive).
As for `CN(C)c1ccc(/C=C2\C[C@H]3[C@@H]4CC=C5C[C@@H](O)CC[C@]5(C)[C@H]4CC[C@]3(C)[C@H]2O)cc1`, the GI50 is 18.1 µM (inactive) in the assay on 786-0; 17.2 µM (inactive) in the assay with A498; 13.6 µM (inactive) in the assay on A549; 6.59 µM (inactive) in the assay on HCT-116; 29.4 µM (inactive) with HOP-62; 19.2 µM (inactive) in the assay with IGROV-1. Moreover, the GI50 with K562 is 28 µM (inactive); in the assay with LOX IMVI, 8.51 µM (inactive); in the assay on M14, 18.2 µM (inactive); with MDA-N, 20.2 µM (inactive); in the assay with NCI/ADR-RES, 18.4 µM (inactive); in the assay on RXF 393, 25.5 µM (inactive). Moreover, the GI50 in the assay with SF-539 was 10.2 µM (inactive); in the assay on SN12C, 12.8 µM (inactive); in the assay on TK-10, 18.5 µM (inactive); with UACC-62 it was 13.7 µM (inactive); with UO-31, 19.3 µM (inactive).
As for `CCOC(=O)NC(Nc1ccc(C)cc1)(C(F)(F)F)C(F)(F)F`, the GI50 with 786-0, with A498, in the assay with A549, with CCRF-CEM, with HCT-116 and with HOP-62 was > 100 µM (inactive) each time. Also, the GI50 with IGROV-1, in the assay on K562, with LOX IMVI, with M14, in the assay on MDA-N and with NCI-H522 was > 100 µM (inactive) throughout. Further, the GI50 in the assay on NCI/ADR-RES, with SF-539, in the assay on SN12C, with TK-10, in the assay with UACC-62 and in the assay with UO-31 was > 100 µM (inactive) each time.
For the compound `CC(=O)c1ccc2c(c1)oc(=O)n2CCN1CCCCC1`, the GI50 was > 100 µM (inactive) with 786-0; > 100 µM (inactive) in the assay on A498; > 100 µM (inactive) in the assay on CAKI-1; 26.3 µM (inactive) in the assay with CCRF-CEM; > 100 µM (inactive) in the assay on HCT-116; > 100 µM (inactive) with HOP-62. For the same compound, the GI50 with IGROV-1, in the assay on K562, with LOX IMVI, in the assay on M14, in the assay with MDA-N and in the assay on NCI/ADR-RES was > 100 µM (inactive) each time. The GI50 in the assay on RXF 393, in the assay with SF-539, in the assay on SN12C, with TK-10 and with UACC-62 was > 100 µM (inactive) throughout.
As to `COc1ccc2nc3c(C)cc4ccccc4n3c2c1`, the GI50 with 786-0 was 48 µM (inactive); with A498, 11.9 µM (inactive); in the assay with A549 it was 41.1 µM (inactive); in the assay with CCRF-CEM, 47.6 µM (inactive); in the assay on HCT-116, 41.6 µM (inactive); in the assay with HOP-62, 75.3 µM (inactive). The GI50 with IGROV-1 is 29.2 µM (inactive); with K562 it was 41.2 µM (inactive); with M14, > 100 µM (inactive); with MDA-N, > 100 µM (inactive); in the assay with NCI/ADR-RES it was > 100 µM (inactive); in the assay with RXF 393, 25.8 µM (inactive). In addition, the GI50 is 86.9 µM (inactive) with SF-539; > 100 µM (inactive) with SN12C; 80.2 µM (inactive) with TK-10; > 100 µM (inactive) in the assay on UACC-62; 52 µM (inactive) in the assay with UO-31.
With `O=C1C2=C(SCCS2)C(=O)c2c(Sc3ccc(Cl)cc3)c(Sc3ccc(Cl)cc3)c(Sc3ccc(Cl)cc3)c(Sc3ccc(Cl)cc3)c21`, the GI50 with 786-0 is 78.5 µM (inactive); in the assay with A498, 29.2 µM (inactive); in the assay on A549 it was > 100 µM (inactive); with CAKI-1, > 100 µM (inactive); with CCRF-CEM it was 11.6 µM (inactive); with HCT-116 it was > 100 µM (inactive). Moreover, the GI50 is 42.7 µM (inactive) with HOP-62; 99.1 µM (inactive) in the assay with IGROV-1; 33.8 µM (inactive) in the assay on M14; > 100 µM (inactive) in the assay on MDA-N; > 100 µM (inactive) in the assay with NCI/ADR-RES; 27 µM (inactive) in the assay on RXF 393. Moreover, the GI50 is > 100 µM (inactive) in the assay on SN12C, 23.7 µM (inactive) in the assay on UACC-62 and > 100 µM (inactive) in the assay on UO-31.
As for `NNC(=O)CCCCCCCC(=O)O`, the GI50 in the assay on 786-0, with A498, in the assay with A549, with CAKI-1, with CCRF-CEM and in the assay on HCT-116 was > 100 µM (inactive) each time. The GI50 in the assay with HOP-62, with IGROV-1, with K562, in the assay with LOX IMVI, with M14 and in the assay with MDA-N was > 100 µM (inactive) in each case. For the same compound, the GI50 in the assay on NCI-H522, in the assay with NCI/ADR-RES, in the assay on SF-539, with SN12C, in the assay on TK-10 and with UACC-62 was > 100 µM (inactive) each time. In addition, the GI50 with UO-31 was > 100 µM (inactive).
Regarding `Cc1nn(-c2ccccc2)c2nc3c(c(C)nn3-c3ccccc3)c(-c3ccc(C(F)(F)F)cc3)c12`, the GI50 in the assay on 786-0 was 60.1 µM (inactive); in the assay with A498 it was > 100 µM (inactive); in the assay with A549, > 100 µM (inactive); in the assay with CAKI-1, > 100 µM (inactive); in the assay with CCRF-CEM it was > 100 µM (inactive); in the assay on HCT-116, > 100 µM (inactive). The GI50 in the assay with HOP-62, in the assay with K562, in the assay with LOX IMVI, in the assay with M14, in the assay on MDA-N and in the assay on NCI/ADR-RES was > 100 µM (inactive) in each case. Further, the GI50 in the assay on RXF 393 is > 100 µM (inactive); in the assay with SF-539, 72.3 µM (inactive); in the assay on SN12C, > 100 µM (inactive); with TK-10 it was > 100 µM (inactive); in the assay on UACC-62, > 100 µM (inactive); in the assay on UO-31, > 100 µM (inactive).
In the case of `CN(C)CCn1c(=O)c2ccc(NCCNCCO)c3c(=O)c4ccccc4n(c1=O)c23`, the GI50 was 0.0149 µM (active) with 786-0; 0.106 µM (active) in the assay on A498; < 0.0121 µM (active) in the assay with A549; < 0.0108 µM (active) with CAKI-1; < 0.01 µM (active) with CCRF-CEM; 0.0492 µM (active) with HCT-116. Moreover, the GI50 in the assay with HOP-62 was 0.0287 µM (active); in the assay on IGROV-1 it was 0.0596 µM (active); in the assay with K562 it was 0.0245 µM (active); in the assay on LOX IMVI, 0.0341 µM (active); in the assay with M14 it was 0.14 µM (active); with MDA-N, 0.328 µM (active). For the same compound, the GI50 was 0.0581 µM (active) in the assay on NCI-H522; 1.72 µM (inactive) in the assay on NCI/ADR-RES; 0.0428 µM (active) in the assay with SF-539; 0.0206 µM (active) in the assay on SN12C; 0.764 µM (active) in the assay on TK-10; 0.0467 µM (active) in the assay on UACC-62. The GI50 in the assay with UO-31 was 0.126 µM (active).
On to `COc1ccc(-c2cc(=O)c3c(O)c(OC)c(OC)c(OC)c3o2)cc1` [GARDENIN B], for which the GI50 in the assay on 786-0 was 21.5 µM (inactive); in the assay with A549, 10.1 µM (inactive); in the assay with CAKI-1 it was > 100 µM (inactive); in the assay with CCRF-CEM, > 100 µM (inactive); in the assay with HCT-116 it was 13.4 µM (inactive); in the assay with HOP-62 it was 24.5 µM (inactive). In addition, the GI50 with IGROV-1 is 2.33 µM (inactive); in the assay with K562, 0.498 µM (active); in the assay with LOX IMVI, 17.6 µM (inactive); in the assay on M14 it was 16.5 µM (inactive); with MDA-N, 0.433 µM (active); with NCI-H522 it was 6.58 µM (inactive). The GI50 in the assay on NCI/ADR-RES was > 100 µM (inactive); with RXF 393 it was 10.6 µM (inactive); in the assay with SF-539, > 61.7 µM (inactive); in the assay with SN12C it was > 100 µM (inactive); in the assay on TK-10, 26.2 µM (inactive); with UACC-62, 45.3 µM (inactive). For the same compound, in the assay with UO-31, the GI50 is > 100 µM (inactive).
